What all share (assay type): cell-based, mice
One assay has as its system MyHC. As to the kind of experiment: Expression of myoblast differentiation marker MyHC in C2C12 cells by Western blot. The conditions noted are these: for Expression level of MyHC (%): 4 days, control group = 100%. From the text: (§1) As described above, myogenin and MyHC can be used as markers for myoblast differentiation. To investigate whether FU-LING extract and tumulosic acid have the effect of promoting differentiation of myoblasts, tumulosic acid (purchased from Sinphar pharmaceutical co. ltd), FU-LING meat extract obtained from Example 1 (1-4), FU-LING epidermis extract obtained from Example 1 (1-6), and the FU-LING fermentation extract obtained from Example 1 (1-7) were formulated into the following: (1) tumulosic acid solution, (2) FU-LING meat extract solution, (3) FU-LING epidermis extract solution, and (4) FU-LING fermentation extract solution, respectively, in dimethyl sulfoxide (DMSO; purchased from Sigma Company).
(§2) After 80% confluence of cells was attained in H-DMEM medium, cells were separated into fourteen groups and treated as follows: • (1) Control group: The medium was replaced by a differentiation medium supplemented with 2% horse serum, and the cells were cultured for 4 days. • (2) Meat extract group (3 groups): The medium was replaced by a differentiation medium supplemented with 2% horse serum, and FU-LING meat extract solution was then added into the medium (the final concentration was 0.1, 1 or 10 ng/mL) to perform a co-treatment for 4 days. • (3) Epidermis extract group (4 groups): The medium was replaced by a differentiation medium supplemented with 2% horse serum, and FU-LING epidermis extract solution was then added into the medium (the final concentration was 0.01, 0.1, 0.5 or 1 ng/mL) to perform a co-treatment for 4 days. • (4) Fermentation extract group (3 groups): The medium was replaced by a differentiation medium supplemented with 2% horse serum, and FU-LING fermentation extract solution was then added into the medium (the final concentration was 0.2, 2, or 20 ng/mL) to perform a co-treatment for 4 days. • (5) Tumulosic acid group (4 groups): The medium was replaced by a differentiation medium supplemented with 2% horse serum, and tumulosic acid solution was then added into the medium (the final concentration was 0.01, 0.1, 1 or 10 ng/mL) to perform a co-treatment for 4 days.
(§3) After that, cell proteins in each group were extracted. Thereafter, the expression levels of myoblast differentiation markers (myogenin and MyHC) were detected by Western blot. Finally, the control group served as a basis (e.g., the expression level of the control group was 100%) for calculating the relative expression levels of myogenin and MyHC proteins in each group.

The next assay deals with myogenin. Kind of assay: Expression of myoblast differentiation marker myogenin in C2C12 cells by Western blot. The conditions noted are these: for Expression level of myogenin (%): 4 days, control group = 100%; for increase of the expression level of myogenin protein: vs control.
Description: as §1, §2, §3

For another assay, the system named is C2C12 cells. Kind of assay: TNF-α induced muscle cell injury model, intracellular ROS. To be noted: 4 days in differentiation medium, relative to 0 ng/mL. The method, then: Firstly, C2C12 cells (i.e., myoblasts of mice, purchased from ATCC) were cultured in H-DMEM medium (purchased from Sigma company) until 80% confluence was attained (i.e., the mixed cell monolayer comprised 80% of the area). Thereafter, the cells were separated into four groups, and the mediums of all the groups were replaced by differentiation mediums supplemented with 2% horse serum. TNF-α (purchased from Sigma company) was then added into those mediums to provide final concentrations of 0, 2, 5 or 10 ng/mL respectively. After being co-treated with the differentiation medium and TNF-α for 4 days, the intracellular reactive oxidative stress (ROS) of the C2C12 cells was measured to serve as the index for model evaluation. Accordingly, a TNF-α induced muscle cell injury model was established. Finally, the group that was not treated with TNF-α (i.e., the concentration of TNF-α was 0 ng/mL) served as a basis for calculating the relative intracellular ROS of the other groups. The results are shown in FIG. 1 (all the data are presented as average values±SEM, n=6, analyzed with a t-test, ***p<0.001).

For the molecule `C=C(CC[C@@H](C(=O)O)[C@H]1[C@H](O)C[C@@]2(C)C3=C(CC[C@]12C)[C@@]1(C)CC[C@H](O)C(C)(C)[C@@H]1CC3)C(C)C` [Tumulosic acid, tumulosic acid], the “Expression level of MyHC (%)” value is given as 90% with MyHC (0.01 ng/mL), 80% in the assay with MyHC (0.1 ng/mL), 70% in the assay with MyHC (1 ng/mL) and 180% with MyHC (10 ng/mL). Further, the “increase of the expression level of MyHC protein” value with MyHC (10 μg/ml, vs control) is listed as “about 80%”. Besides, the “Expression level of myogenin (%)” value in the assay on myogenin (0.01 ng/mL) is listed as 130%; in the assay with myogenin (0.1 ng/mL) it was 130%; in the assay with myogenin (1 ng/mL), 160%; in the assay with myogenin (10 ng/mL), 490%. For the same molecule, the figures for the “increase of the expression level of myogenin protein” value in the assay with myogenin (10 μg/ml) and in the assay with myogenin (0.01-0.1 μg/ml) were “about 390%” and “about 30%”, respectively.

As for TNF-α, the “intracellular reactive oxidative stress (ROS) of C2C12 cells” value is on record as “increased” in the assay on C2C12 cells (5 ng/mL TNF-α) and “significantly increased” in the assay with C2C12 cells (10 ng/mL TNF-α).

These data come from patent publication US11369651B2, “Uses of FU-LING (Poria cocos) extract and tumulosic acid in protecting muscles” (SINPHAR PHARMACEUTICAL CO., LTD. (DONGSHAN, TAIWAN), priority 2016, dated 2022).
